From patent US5300501A, “Peptidyl derivatives” (Celltech Limited, priority 1990, dated 1994) come the findings set out here.

Format in all cases: biochemical
The target of assay [1] is Stromelysin-1 (Homo sapiens, UniProt P08254). The experiment in a line: Enzyme inhibition assay (peptide substrate Dnp-Pro-Leu-Gly-Leu-Trp-Ala-D-Arg-NH2, Trp fluorescence), stromelysin. Particulars: pH 7.5, overnight, Ki (app) assumed to approximate true Ki.
Description: (§1) The enzymes cleave at the Gly-Leu bond which can be followed fluorimetrically by measuring the increase in Trp fluorescence emission associated with the removal of the quenching dinitrophenol (Dnp) group.
(§2) Ki values can be established using the equation for tight-being inhibition: [formula] where Vo is the initial rate of reaction in the absence of inhibitor, Vi is the initial rate in the presence of inhibitor, [E] is the total enzyme concentration and [I] the total inhibitor concentration in the reaction mixture.
(§3) For stromelysin and collagenase, Ki (app) was assumed to approximate to the true Ki as [S]<<Km for the substrate hydrolysis. For gelatinase the Ki was determined by performing the analyses at several substrate concentrations. A plot of Ki (app) vs. [S] then gave the true Ki as the value of the y-axis intercept.
Assay [2] deals with T1, Gelatinase-72KD (Homo sapiens, UniProt P08253).
T1 sequence (P08253 110-660): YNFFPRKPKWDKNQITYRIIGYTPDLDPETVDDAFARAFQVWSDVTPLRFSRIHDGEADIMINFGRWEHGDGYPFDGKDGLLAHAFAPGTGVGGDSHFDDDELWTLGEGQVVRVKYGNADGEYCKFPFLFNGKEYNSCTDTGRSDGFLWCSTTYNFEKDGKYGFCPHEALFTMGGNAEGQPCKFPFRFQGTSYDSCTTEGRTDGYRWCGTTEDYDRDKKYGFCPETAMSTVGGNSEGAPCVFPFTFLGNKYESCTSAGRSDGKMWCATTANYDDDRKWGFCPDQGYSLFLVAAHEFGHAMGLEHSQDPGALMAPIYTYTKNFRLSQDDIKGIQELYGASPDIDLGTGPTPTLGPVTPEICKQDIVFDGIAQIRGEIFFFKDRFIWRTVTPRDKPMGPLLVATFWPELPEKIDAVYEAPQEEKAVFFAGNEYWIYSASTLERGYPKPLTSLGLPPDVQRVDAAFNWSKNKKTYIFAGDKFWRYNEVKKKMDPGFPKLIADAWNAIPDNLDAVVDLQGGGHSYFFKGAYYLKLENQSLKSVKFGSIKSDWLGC
Briefly: Enzyme inhibition assay (peptide substrate Dnp-Pro-Leu-Gly-Leu-Trp-Ala-D-Arg-NH2, Trp fluorescence), gelatinase. Conditions: pH 7.5, overnight; true Ki from plot of Ki (app) vs. [S], y-axis intercept.
Description: as §1, §2, §3

The target in assay [3] is T2, Collagenase (Homo sapiens, UniProt P03956).
T2 sequence (P03956 100-469): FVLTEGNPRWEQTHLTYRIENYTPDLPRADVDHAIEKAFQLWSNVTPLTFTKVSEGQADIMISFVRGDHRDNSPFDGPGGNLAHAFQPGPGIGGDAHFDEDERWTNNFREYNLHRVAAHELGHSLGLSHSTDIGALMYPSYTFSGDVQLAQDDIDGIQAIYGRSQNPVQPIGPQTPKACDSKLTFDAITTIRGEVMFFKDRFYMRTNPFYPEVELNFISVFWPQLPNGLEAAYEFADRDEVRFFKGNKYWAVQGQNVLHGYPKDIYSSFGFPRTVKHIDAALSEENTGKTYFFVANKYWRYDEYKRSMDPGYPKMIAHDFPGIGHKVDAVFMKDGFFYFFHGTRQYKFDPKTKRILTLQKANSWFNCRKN
The experiment in a line: Enzyme inhibition assay (peptide substrate Dnp-Pro-Leu-Gly-Leu-Trp-Ala-D-Arg-NH2, Trp fluorescence), collagenase. Particulars: pH 7.5, overnight, Ki (app) assumed to approximate true Ki.
Description: as §1, §2, §3

The mark [4] stands for this setting: value printed in μM in the cell.

Stromelysin-1, sequence (P08254 100-477, species assumed): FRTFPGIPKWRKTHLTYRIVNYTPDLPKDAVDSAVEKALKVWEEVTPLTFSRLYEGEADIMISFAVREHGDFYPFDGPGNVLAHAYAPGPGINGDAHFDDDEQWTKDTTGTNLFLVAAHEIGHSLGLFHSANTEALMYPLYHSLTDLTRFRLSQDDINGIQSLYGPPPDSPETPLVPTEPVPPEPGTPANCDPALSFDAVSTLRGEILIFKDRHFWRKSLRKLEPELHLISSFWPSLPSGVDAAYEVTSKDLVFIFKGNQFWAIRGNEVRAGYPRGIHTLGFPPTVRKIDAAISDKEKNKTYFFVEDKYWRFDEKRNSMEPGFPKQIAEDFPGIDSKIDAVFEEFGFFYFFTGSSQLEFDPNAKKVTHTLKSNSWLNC

Consider `NS(=O)(=O)c1ccc(CCNC(=O)[C@H](CC2CCCCC2)NC(=O)[C@H](CCCc2ccccc2)CC(=O)NO)cc1` [Example 6, [4-(N-Hydroxyamino)-2R-phenylpropylsuccinyl]-L-β-cyclohexyalanine-N-(2-(p-sulphonamidophenyl)ethyl) amide], for which the Ki in assay [1] was 0.00592 µM; in assay [2], 0.025 nM; in assay [3], 0.15 µM.

Regarding `COC(=O)CCNC(=O)[C@H](CC1CCCCC1)NC(=O)[C@H](CCCc1ccccc1)CC(=O)O` [Example 16, [4-Hydroxy-2(R)-(3-phenylpropyl)succinyl]-L-β-cyclohexylalanine-β-alanine methyl ester], the results for the Ki in assay [1] (setting [4]), in assay [2] and in assay [3] (setting [4]) were 1.47 µM, 6 nM and 57 µM, respectively.

`O=C(O)C[C@@H](CCCc1ccccc1)C(=O)N[C@@H](CC1CCCCC1)C(=O)NCCc1ccccc1` [Example 15, [4-Hydroxy-2(R)-(3-phenylpropyl)succinnyl]-L-β-cyclohexylalanine-(N-2-phenylethyl) amide] had a Ki in assay [1] of 0.842 µM.

Regarding `O=C(C[C@@H](CCCc1ccccc1)C(=O)N[C@@H](CC1CCCCC1)C(=O)NCCCN1CCOCC1)NO` [Example 12, [4-(N-Hydroxyamino)-2R-phenylpropylsuccinyl]-L-β-cyclohexylalanine-N-[3(4-morpholinyl)propyl] amide], the Ki was determined as 0.0248 µM in assay [1], 0.14 nM in assay [2] and 0.21 µM in assay [3].
